Paper PMC8537068, “Do Lipids Influence Gastrointestinal Processing: A Case Study of Major Soybean Allergen Gly m 4” (Membranes, 2021)

Columns and labels:
pepsin = target: T1, pepsin (Sus scrofa, UniProt P00791); assay: TNS displacement fluorescence; assay type: binding; conditions: 4 µM protein, 4 µM TNS, 4 µM lipid; 0.05 M HCl pH 2.0, 25 °C
T1 construct: gene PGA; commercial native porcine pepsin (Sigma-Aldrich), mature enzyme without propeptide

Gly m 4 = target: T2, Gly m 4 (Glycine max, UniProt P26987); assay: TNS displacement fluorescence; assay type: binding; conditions: 4 µM protein, 4 µM TNS, 4 µM lipid; 0.01 M phosphate pH 7.4, 25 °C
T2 construct: gene PR-10
T2 sequence (P26987 1-158): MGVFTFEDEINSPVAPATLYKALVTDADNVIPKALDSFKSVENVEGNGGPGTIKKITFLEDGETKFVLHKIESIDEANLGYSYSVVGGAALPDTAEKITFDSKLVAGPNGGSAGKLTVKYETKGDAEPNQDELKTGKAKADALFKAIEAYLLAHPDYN

T1 sequence (P00791 60-385): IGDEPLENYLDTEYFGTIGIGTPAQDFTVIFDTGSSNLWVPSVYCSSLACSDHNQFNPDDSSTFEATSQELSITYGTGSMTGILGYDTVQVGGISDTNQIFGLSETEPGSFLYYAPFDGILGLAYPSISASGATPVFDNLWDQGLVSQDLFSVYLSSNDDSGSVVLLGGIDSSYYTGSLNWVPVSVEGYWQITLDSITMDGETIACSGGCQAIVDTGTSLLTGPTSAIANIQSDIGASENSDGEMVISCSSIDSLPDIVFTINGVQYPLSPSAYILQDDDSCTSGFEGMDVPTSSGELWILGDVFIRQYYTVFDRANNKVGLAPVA

CCCCCCCCCCCCCCCC(=O)OC[C@@H](O)COP(=O)(O)OCC(O)CO (some centres unmarked) [LPPG, 1-palmitoyl-2-hydroxy-sn-glycero-3-phosphoglycerol]
% of control TNS fluorescence (pepsin): pepsin bound to the tested FAs and LPPG with an equal efficiency | % of control TNS fluorescence (Gly m 4): 26%

CCCCCCCC/C=C\CCCCCCCC(=O)O [OLE, oleic acid]
% of control TNS fluorescence (pepsin): pepsin bound to the tested FAs and LPPG with an equal efficiency | % of control TNS fluorescence (Gly m 4): 12%

CCCCCCCCCCCCCCCCCC(=O)O [STE, stearic acid]
% of control TNS fluorescence (pepsin): pepsin bound to the tested FAs and LPPG with an equal efficiency
